This passage reports Time and Activity results from ChEMBL document CHEMBL3046136, “Evaluation of antidepressant-like effect of 2-pyrazoline derivatives” (Med Chem Res, 2010).

Data set [1] relates to Mus musculus. Kind of data set: Antidepressant-like activity in Mus musculus albino (mouse) assessed as latency for first immobilization at 100 mg/kg, ip measured after 30 min by forced swim test (reference value: 68 +/- 13 sec). It counts as functional. As to conditions: route intraperitoneal.
In data set [2] the test system is Mus musculus. Kind of data set: Antidepressant-like activity in Mus musculus albino (mouse) assessed as immobility time at 100 mg/kg, ip measured after 30 min by forced swim test (reference value: 167 +/- 17 sec). Format: functional. As to conditions: route intraperitoneal.
Data set [3] deals with Mus musculus. Nature of the data set: Toxicity in Mus musculus albino (mouse) assessed as resting time at 100 mg/kg, ip. The note with it: in vivo. Format: organism-based. The arrangement: dose 100 mg/kg, route intraperitoneal.
Data set [4] deals with Mus musculus. Kind of data set: Toxicity in Mus musculus albino (mouse) assessed as increase in total distance travelled at 100 mg/kg, ip. Format: organism-based. Set-up: dose 100 mg/kg, route intraperitoneal. The note with it: in vivo.
The test system of data set [5] is Mus musculus. Kind of data set: Toxicity in Mus musculus albino (mouse) assessed as increase in horizontal activity at 100 mg/kg, ip. It counts as organism-based. Set-up: dose 100 mg/kg, route intraperitoneal. As to conditions: in vivo.
In data set [6] the test system is Mus musculus. Nature of the data set: Toxicity in Mus musculus albino (mouse) assessed as decrease in horizontal activity at 100 mg/kg, ip. It counts as organism-based. The arrangement: dose 100 mg/kg, route intraperitoneal. As to conditions: in vivo.
Data set [7] concerns Mus musculus. Nature of the data set: Toxicity in Mus musculus albino (mouse) assessed as decrease in total distance travelled at 100 mg/kg, ip. Format: organism-based. Set-up: dose 100 mg/kg, route intraperitoneal. The note with it: in vivo.
In data set [8] the test system is Mus musculus. Nature of the data set: Toxicity in Mus musculus albino (mouse) assessed as resting time at 10 mg/kg, ip. The note with it: in vivo. Set-up: dose 10 mg/kg, route intraperitoneal. Format: organism-based.
For data set [9], the system named is Mus musculus. Nature of the data set: Toxicity in Mus musculus albino (mouse) assessed as increase in horizontal activity at 10 mg/kg, ip. It counts as organism-based. Set-up: dose 10 mg/kg, route intraperitoneal. The note with it: in vivo.
Data set [10] has as its system Mus musculus. Kind of data set: Toxicity in Mus musculus albino (mouse) assessed as increase in total distance travelled at 10 mg/kg, ip. Format: organism-based. The arrangement: dose 10 mg/kg, route intraperitoneal. The note with it: in vivo.

Regarding `O=C(CSC(=S)N1CCOCC1)N1N=C(c2cccs2)CC1c1ccccc1` (stereo not drawn), the figures for the Time in data set [1] and in [2] were 73 s and 148 s, respectively. Further, the figures for the Activity in data set [3], in [4] and in data set [5] were 77%, “Toxic” and “Toxic”, respectively.
As to `O=C(CSC(=S)N1CCSCC1)N1N=C(c2cccs2)CC1c1ccccc1` (stereo not drawn), the Time in data set [1] came to 72 s; in [2], 84 s. Also, the Activity in data set [3] was 73%; in [4], “Toxic”; in data set [5] it was “Toxic”.
`Cc1ccc(C2CC(c3cccs3)=NN2C(=O)CSC(=S)N2CCOCC2)cc1` (stereo not drawn): the Time was 99 s in [1] and 129 s in data set [2]. Further, the Activity result is recorded as “Toxic” in [6], 89% in data set [3] and “Toxic” in data set [7].
Turning to `Cc1ccc(C2CC(c3cccs3)=NN2C(=O)CSC(=S)N2CCSCC2)cc1` (stereo not drawn), the Time is recorded as 60 s in data set [1] and 113 s in data set [2]. In data set [3], the Activity is 81%.
With `COc1ccc(C2CC(c3cccs3)=NN2C(=O)CSC(=S)N2CCOCC2)cc1` (stereo not drawn), the figures for the Time in data set [1] and in data set [2] were 94 s and 139 s, respectively. Further, in [3], the Activity is on record as 84%.
On to `COc1ccc(C2CC(c3cccs3)=NN2C(=O)CSC(=S)N2CCSCC2)cc1` (stereo not drawn), for which the Time is 80 s in data set [1] and 134 s in data set [2]. Also, the results for the Activity in data set [3], in [4] and in data set [5] were 72%, “Toxic” and “Toxic”, respectively.
On to `O=C(CSC(=S)N1CCOCC1)N1N=C(c2cccs2)CC1c1ccc(Cl)cc1` (stereo not drawn), for which the Time in data set [1] was 36 s; in data set [2] it was 112 s. In data set [3], the Activity was 80%.
For the compound `O=C(CSC(=S)N1CCSCC1)N1N=C(c2cccs2)CC1c1ccc(Cl)cc1` (stereo not drawn), the Time in [1] is 77 s; in [2] it was 136 s. The Activity result is reported as “Toxic” in data set [6], 80% in [3] and “Toxic” in data set [7].
With `N[C@@H]1C[C@H]1c1ccccc1.N[C@H]1C[C@@H]1c1ccccc1` (racemic) [TRANYLCYPROMINE], the Activity in [8] is listed as 89%.
For the compound `CN(C)CCCN1c2ccccc2CCc2ccc(Cl)cc21` [CLOMIPRAMINE], the Activity in data set [8] is recorded as 73%; in data set [9] it was “Toxic”; in data set [10], “Toxic”.
